Measured values from patent publication US20050085454A1, “Phenolic antioxidant-chromium complexes for treatment or prevention of type 2 diabetes or glucose intolerance” (NATREON INC., priority 2003, published 2005).

Columns and labels:
[1] = test system: Steptozocine(STZ)-induced male Wistar rats; test: Effect of high doses of the inventive complex, blood sugar over 21 days; type: in vivo; settings: 100 mg/Kg oral (S-2: Cr3+ 1,000 μg/Kg; chromium picolinate: Cr3+ 700 μg/Kg), concurrently with STZ 40 mg/Kg s.c.
[2] = Effects on animal body weight in STZ-induced hyperglycemia; type: in vivo; settings: STZ-treated rats, 100 mg/Kg oral
[3] = test system: STZ-induced diabetic rats; test: Repairing damaged β-cells: treatment of STZ-induced diabetic rats for further 21 days; type: in vivo
Protocol: In another set of experiments, STZ-induced diabetic rats, after 21 days, were administered the invention test complex compounds: S-1 (50 mg/Kg, p.o.), S-2 (100 mg/Kg, p.o.), Chromium picolinate (100 mg/Kg, p.o.), Example-1A (100 mg/Kg., p.o.), per day for further 21 days. This experiment was conducted with a view to assessing the repair aspect of the damaged β-cells by the test compounds.

[4] = test system: GK rat; settings: Vitamin E supplementation; cited from earlier work
[5] = test system: obese Zucker rat; settings: dietary Vitamin E; cited from earlier work
[6] = test system: patients with coronary heart disease; settings: 60 mg twice daily oral, after 8 weeks; cited from earlier work
[7] = test system: patients with NIDDM; settings: oral administration; cited from earlier work
[8] = test system: Steptozocine(STZ)-induced male albino rats; test: Screening of antidiabetic activity, blood sugar lowering action; type: in vivo; settings: 300 μg/Kg oral, 48 hr after STZ
[9] = test system: rats with diabetes induced by chemical destruction of β-cells; settings: 1% taurine in the drinking water; cited from earlier work

Chromium picolinate
Blood Sugar Values (Arterial Blood), day 7 ([1]; day 7): 88.7 ± 4.4
Blood Sugar Values (Arterial Blood), day 14 ([1]; day 14): 94.3 ± 7.2
Blood Sugar Values (Arterial Blood), day 21 ([1]; day 21): 92.5 ± 3.5
Body Weight in gm, day 1 ([2]; day 1): 166 ± 8 gm
Body Weight in gm, day 7 ([2]; day 7): 180 ± 7 gm
Body Weight in gm, day 14 ([2]; day 14): 168 ± 9 gm
Body Weight in gm, day 21 ([2]; day 21): 172 ± 9 gm
% Change from day 1 (glucose) ([3]; 100 mg/Kg p.o. per day for 21 days, started 21 days after STZ, day 21 vs day 1): +14 ↑ %
Glucose (mg/dl) values; mean ± SE, day 1 ([3]; 100 mg/Kg p.o. per day, started 21 days after STZ, day 1): 253.2 ± 7.7 mg/dL
Glucose (mg/dl) values; mean ± SE, day 7 ([3]; 100 mg/Kg p.o. per day, started 21 days after STZ, day 7): 302.8 ± 18.0 mg/dL
Glucose (mg/dl) values; mean ± SE, day 14 ([3]; 100 mg/Kg p.o. per day, started 21 days after STZ, day 14): 294.3 ± 20.4 mg/dL
Glucose (mg/dl) values; mean ± SE, day 21 ([3]; 100 mg/Kg p.o. per day, started 21 days after STZ, day 21): 289.6 ± 9.0 mg/dL
effect on progressive increase in hyperglycemia (post STZ-treatment) ([3]; diabetic rats treated p.o. for 21 days): no beneficial effect

Vitamin E
glycemic control [4]: significantly improved
glucose-stimulated hyper-insulinemia and lipid peroxidation [5]: significantly reduced

COC1=C(OC)C(=O)C(C/C=C(\C)CC/C=C(\C)CC/C=C(\C)CC/C=C(\C)CC/C=C(\C)CC/C=C(\C)CC/C=C(\C)CC/C=C(\C)CC/C=C(\C)CCC=C(C)C)=C(C)C1=O [coenzyme Q10]
plasma levels of insulin (fasting and 2-hr), glucose, and lipid peroxides, as compared to the control group [6]: reduced

O=C(O)CCCC[C@@H]1CCSS1 (racemic) [lipoic acid]
insulin-mediated glucose uptake [7]: significantly increased

Chromium polynicotinate [Example N-7]
Fasting Serum Glucose (mg/dl) (mean ± SEM) ([8]; 3 days before and 2 days after STZ 50 mg/Kg i.v., 18 hr fasting): 141.30 ± 9.54 mg/dL
% Inhibition (of fasting serum glucose vs STZ) ([8]; 3 days before and 2 days after STZ): 58.25%

NCCS(=O)(=O)O [taurine]
renal oxidant injury [9]: reduced
